Laboratory results reported in article PMC8066102, “Metabolic Profiles of New Unsymmetrical Bisacridine Antitumor Agents in Electrochemical and Enzymatic Noncellular Systems and in Tumor Cells” (Pharmaceuticals, 2021).

Tests used:
Assay type in all cases: in vitro ADME
[1] = target: T1, UGT 1A6 (Homo sapiens, UniProt P19224); experiment: Glucuronidation with recombinant UGT1A6; set-up: key: −: the lack of UGT activity; +: the significant UGT activity; settings: 0.05 mM compound, 1 mg/mL UGT, 5 mM UDPGA
T1 construct: His tag; purchased Corning, NY, USA (through DIAG-MED, Poland); host or cells: baculovirus-insect cells (Supersomes); Results say Sf9 cells
T1 sequence (P19224 27-532): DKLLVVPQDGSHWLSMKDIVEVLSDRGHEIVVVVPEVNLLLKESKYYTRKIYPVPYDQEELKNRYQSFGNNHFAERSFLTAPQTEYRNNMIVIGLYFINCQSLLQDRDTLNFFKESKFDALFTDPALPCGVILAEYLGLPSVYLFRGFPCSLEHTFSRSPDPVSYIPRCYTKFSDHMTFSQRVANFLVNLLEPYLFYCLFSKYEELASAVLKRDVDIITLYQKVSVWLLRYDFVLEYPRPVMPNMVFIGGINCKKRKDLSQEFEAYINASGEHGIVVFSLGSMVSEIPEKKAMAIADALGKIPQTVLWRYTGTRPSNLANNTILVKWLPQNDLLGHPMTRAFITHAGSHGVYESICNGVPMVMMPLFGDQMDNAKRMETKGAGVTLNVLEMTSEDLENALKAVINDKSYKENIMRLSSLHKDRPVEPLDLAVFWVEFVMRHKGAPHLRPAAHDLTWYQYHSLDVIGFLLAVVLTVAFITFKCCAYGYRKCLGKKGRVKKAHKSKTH
Protocol: (§1) Recombinant UGT isoform protein (1 mg/mL) was assayed for activity toward tested UAs as follows. The proteins were incubated in a buffer containing 0.1 M HEPES (pH 7.4), 8 mM MgCl2 and alamethicin (25 μg/mL) with either 0.05 mM substrate in total volume 70 µL (alamethicin was added to permeabilize the membrane). Substrates were also in buffer HEPES, pH 7.4. Reactions were started by the addition of UDPGA (5 mM) and were incubated for specified time at 37 °C. The reactions were stopped by the addition of 8.75 µL of 1 M HCl, followed by centrifugation at 13400 rpm for 10 min to pellet the denatured protein. The supernatant fractions were used for HPLC analysis. Control reactions omitting substrate were run with each assay. All incubations were performed in two repetitions.

[2] = test system: rat liver microsomes, P450-RLMs Dex-induced; experiment: Metabolism with rat liver microsomes (Dex-induced P450-RLMs); settings: 0.05 mM compound, 2 mM NADPH; for conversion rate: 2 mg/mL Dex-induced P450-RLMs, 30 min; for substrate consumption: Dex-induced P450-RLMs, 10 min
Protocol: The initial studies on drug metabolism of new UAs were performed with rat liver microsomes under the optimal conditions. HEPES buffer (0.1 M) at pH 7.4 with 2 mM NADPH and 0.05 mM UAs (C-2028 and C-2045) were selected.
UT-RLMs (2 mg/mL) and P450-RLMs induced with Dex, 3MC, or PB and recombinant P4502C19 and P4503A4 (1 mg/mL) were assayed for activity toward tested UAs as follows. The proteins were incubated in a buffer containing 0.1 M HEPES (pH 7.4), 2 mM MgCl2 with 0.05 mM substrate in total volume 70 µL. Substrates were added also in buffer HEPES, pH 7.4. Reactions were started by the addition of NADPH (2 mM) and were incubated for specified time at 37 °C. The reactions were stopped by the addition of 8.75 µL of 1 M HCl, followed by centrifugation at 13,400 rpm for 10 min to pellet the denatured protein. The supernatant fractions were used for high-performance liquid chromatography (HPLC) analysis. Control reactions omitting substrate were run with each assay. All incubations were performed in two repetitions.

[3] = target: T2, UGT1A1 (Homo sapiens, UniProt P22309); experiment: Glucuronidation with recombinant UGT1A1; set-up: His tag; purchased Corning, NY, USA (through DIAG-MED, Poland); host or cells: baculovirus-insect cells (Supersomes); Results say Sf9 cells; key: −: the lack of UGT activity; +: the significant UGT activity; settings: 0.05 mM compound, 1 mg/mL UGT, 5 mM UDPGA
T2 sequence (P22309 26-533): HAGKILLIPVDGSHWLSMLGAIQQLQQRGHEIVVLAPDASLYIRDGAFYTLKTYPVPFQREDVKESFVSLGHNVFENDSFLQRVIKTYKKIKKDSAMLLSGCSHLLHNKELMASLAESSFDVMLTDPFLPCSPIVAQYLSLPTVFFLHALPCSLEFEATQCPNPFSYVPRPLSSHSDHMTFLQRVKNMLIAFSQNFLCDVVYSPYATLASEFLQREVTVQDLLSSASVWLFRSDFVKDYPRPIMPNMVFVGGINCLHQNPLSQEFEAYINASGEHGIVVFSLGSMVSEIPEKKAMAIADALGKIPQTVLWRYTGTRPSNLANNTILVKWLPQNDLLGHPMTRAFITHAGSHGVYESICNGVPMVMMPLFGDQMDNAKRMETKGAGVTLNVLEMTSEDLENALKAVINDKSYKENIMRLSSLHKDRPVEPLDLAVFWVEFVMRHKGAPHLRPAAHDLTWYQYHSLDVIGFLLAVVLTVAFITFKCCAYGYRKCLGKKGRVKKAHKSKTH
Protocol: as §1

[4] = target: T3, P4503A4 (Homo sapiens, UniProt P08684); experiment: Modulation of P4503A4 activity (testosterone β-hydroxylation); settings: for mechanism of P4503A4 inhibition: testosterone 0.02-0.2 mM, inhibitor 0-0.01 mM, nonlinear regression; for decrease in activity of P4503A4: testosterone β-hydroxylation, all concentrations (0.01, 0.02 and 0.05 mM), 30 min
T3 construct: purchased Cypex, Dundee, Scotland, UK (through Tebu-Bio); host or cells: Escherichia coli (Bactosomes)
Protocol: Isoenzyme activity was studied by the rate measurement of β-hydroxylation of testosterone (specific substrate for P4503A4) and of glucuronidation of specific substrates, namely, SN-38 (UGT1A1), EPI (UGT2B7),) and TFK (UGT2B15). All substrate and drug solutions were prepared as 10 mM stock solutions in DMSO and were diluted in […] (pH 7.4). The mixture containing isoenzymes P4503A4/UGT (0.5 mg/mL), probe substrate (0.1 mM), cofactor 2 mM NADPH/5 mM UDPGA and the increasing concentrations of tested UA (0, 0.01, 0.02 and 0.05 mM) was incubated in the reaction buffer containing (i) for P4503A4 0.1 M HEPES, 88 mM MgCl2 and (ii) for UGT 0.1 M HEPES, 88 mM MgCl2, 25 μg/mL alamethicin at 37 °C for 30 min and were terminated by adding 8.75 µL of 0.1 M HCl. The samples were placed in ice for 10 min and centrifuged (10 min, 13,400 rpm). Supernatant fractions were analyzed by HPLC. For more accurate investigation of P4503A4 inhibition by C-2045 and C-2053 the β-hydroxylation rate was measured at various concentrations of testosterone: 0.02, 0.05, 0.1 and 0.2 mM. The inhibitor (UA) concentrations were 0, 0.001, 0.005 and 0.01 mM, whereas the incubation time 30 min and concentration of P4503A4 (0.5 mg/mL).

T3 sequence (P08684 whole entry): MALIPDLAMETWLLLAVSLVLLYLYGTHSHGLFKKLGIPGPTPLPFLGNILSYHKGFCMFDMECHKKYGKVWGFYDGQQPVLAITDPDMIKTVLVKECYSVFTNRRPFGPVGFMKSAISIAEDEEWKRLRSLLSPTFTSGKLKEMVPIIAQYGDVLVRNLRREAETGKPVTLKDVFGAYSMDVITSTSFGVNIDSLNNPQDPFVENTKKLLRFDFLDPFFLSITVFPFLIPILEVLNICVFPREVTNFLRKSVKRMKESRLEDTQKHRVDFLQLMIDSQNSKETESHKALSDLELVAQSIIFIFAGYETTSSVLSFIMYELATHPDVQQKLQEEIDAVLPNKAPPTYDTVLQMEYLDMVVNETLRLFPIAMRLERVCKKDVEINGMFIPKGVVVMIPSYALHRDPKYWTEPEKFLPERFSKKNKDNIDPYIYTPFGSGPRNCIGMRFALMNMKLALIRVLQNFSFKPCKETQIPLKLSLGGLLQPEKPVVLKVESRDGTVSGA

SMILES	Glucuronidation potency UGT 1A6 [1]	conversion rate [2]	substrate consumption [2]	Glucuronidation potency UGT 1A1 [3]	mechanism of P4503A4 inhibition [4]	decrease in activity of P4503A4 [4]
CN(CCCNc1c2ccccc2nc2cccc([N+](=O)[O-])c12)CCCNc1ccc2ncn3c4ccccc4c(=O)c1c23 [C-2028]	−	100%	completely consumed	−		
Cc1ccc([N+](=O)[O-])c2c(NCCCN(C)CCCNc3ccc4ncn5c6ccc(O)cc6c(=O)c3c45)c3ccccc3nc12 [C-2045]		80%	not metabolized	+	non-competitive	over 90%
Cc1ccc([N+](=O)[O-])c2c(NCCCN(C)CCCNc3ccc4ncn5c6ccccc6c(=O)c3c45)c3ccccc3nc12 [C-2053]	−			−	competitive	above 50%
